Experimental data from patent EP0215701A1, “Esters of cyclopropanecarboxylic acids and 2,3-dihydro-4-phenyl-1H-inden-2-ol, their preparation, their use as parasiticides and compositions containing them” (ROUSSEL-UCLAF, priority 1985, dated 1987).

Test system: Tétranychus urticae
Assay: Adulticide test on Tétranychus urticae (treated bean plants)
Format: in vivo
Conditions: bean plants sprayed at different doses, infested with 25 females per leaf, 22-23°C, 60-65% relative humidity; live and dead mites counted 24 h and 48 h after treatment
Source text: On utilise des plants de haricots comportant deux feuilles qui sont traitées au pistolet Fisher à différentes doses des produits à tester. Après séchage, ces plants sont infestés à raison de 25 femelles de Tétranychus urticae par feuille et maintenus à 22-23◊C, 60 - 65% d'humidité relative. Les dénombrements des acariens vivants et morts sont effectués 24 heures et 48 heures après traitement.

## CC(C)(C)OC(=O)/C(F)=C\[C@H]1[C@@H](C(=O)OC2Cc3cccc(-c4ccccc4)c3C2)C1(C)C (stereo partly drawn) [Exemple 4, /1R-/1α,3α (E)/ 3-(3-terbutoxy-3-oxo-2-fluoro-1-propényl) -2,2-diméthyl cyclopropane carboxylatede 2,3-dihydro-4-phényl-1H-inden-2-yle]
  CL 50: 173 mg/hl
